Common to all, as to format: cell-based
For assay [1], the target named is T1, PrRPR N298A (Homo sapiens, UniProt P49683, N298A).
T1 construct: Flag; expressed in transfected cells; host or cells: AD293 cells
The assay is described as follows: BRET2 Gi dissociation, N298A. The conditions noted are these: N298A (6.55), Gi-coupling, AD293 cells; mean ± S.E.M., n = 3; P 0.0022 vs WT; read-out: BRET2 pEC50 (converted). On the procedure:
(§1) AD293 cells (Agilent) were propagated in Dulbecco’s Modified Eagle Medium (DMEM, Thermo Fisher Scientific), enriched with 10% fetal bovine serum (FBS, Thermo Fisher Scientific), and maintained at 37 °C in a 5% CO2 environment. Cells were then seeded in 6-well dishes at a density of 130,000–150,000 cells per mL and allowed to incubate overnight. On the next day, cells were transfected with plasmids at a 1:1:1:1 ratio for receptor:Gα-RLuc8:Gβ:Gγ-GFP2[52]. PEI MAX 40 K (BIOHUB) was utilized to form complex with the plasmids at a ratio of 3 µL PEI per µg of plasmids, in OptiMEM (Gibco-Thermo Fisher Scientific) at a concentration of 10 ng plasmids per µL OptiMEM. After 24 h of incubation, the culture was harvested by centrifugation with PBS. The cell suspension was then allocated into a white 384-well plate at a volume of 30 µL per well, followed by the addition of 10 µL of freshly prepared 50 µM coelenterazine 400a (Yeasen). Following a 15-min equilibration period, cells were treated with 10 µL of ligand for an additional 5 min. Plates were subsequently read in a BioTek Synergy H1 microplate reader (BioTek) equipped with 395 nm (RLuc8-coelenterazine 400a) and 510 nm (GFP2) emission filters. BRET2 ratios were calculated as the ratio of the GFP2 emission to RLuc8 emission. Data were normalized to the baseline response of the ligand. […]
(BRET reads energy transfer from a luciferase to a nearby fluorophore.)

Assay [2] has as its target T2, PrRPR P142A (Homo sapiens, UniProt P49683, P142A).
T2 construct: expressed in transfected cells; host or cells: AD293 cells
The assay is described as follows: BRET2 Gi dissociation, P142A. The following applies: P142A (3.33), Gi-coupling, AD293 cells; mean ± S.E.M., n = 3; P 0.0035 vs WT; read-out: BRET2 pEC50 (converted). The protocol: as §1

For assay [3], the target named is T3, PrRPR L294A (Homo sapiens, UniProt P49683, L294A).
T3 construct: Flag; expressed in transfected cells; host or cells: AD293 cells
Put plainly: BRET2 Gq dissociation, L294A. The following applies: L294A (6.51), Gq-coupling, AD293 cells; mean ± S.E.M., n = 3; P <0.0001 vs WT; read-out: BRET2 pEC50 (converted). The protocol:
as §1, with “Following a 15-min equilibration period, cells were treated with 10 µL of ligand for an additional 5 min.” left out, “emission.” for “emission. Data were normalized to the baseline response of the ligand.”
(§2) Supplementary Fig. S4 | Effects of mutations in the ligand-binding pocket and G protein intereface of Gq coupled PrRPR by BRET2 assay. […] BRET2 assay signals were measured after stimulation with PrRP20. […]

For assay [4], the target named is T1, PrRPR N298A. The assay is described as follows: BRET2 Gq dissociation, N298A. The following applies: N298A (6.55), Gq-coupling, AD293 cells; mean ± S.E.M., n = 3; P 0.0042 vs WT; read-out: BRET2 pEC50 (converted). The protocol:
as §1, with “Following a 15-min equilibration period, cells were treated with 10 µL of ligand for an additional 5 min.” left out, “emission.” for “emission. Data were normalized to the baseline response of the ligand.”
as §2

For assay [5], the target named is T4, PrRPR Y225A (Homo sapiens, UniProt P49683, Y225A).
T4 construct: Flag; expressed in transfected cells; host or cells: AD293 cells
The assay is described as follows: BRET2 Gq dissociation, Y225A. The following applies: Y225A (5.38), Gq-coupling, AD293 cells; mean ± S.E.M., n = 3; P <0.0001 vs WT; read-out: BRET2 pEC50 (converted). The protocol:
as §1, with “Following a 15-min equilibration period, cells were treated with 10 µL of ligand for an additional 5 min.” left out, “emission.” for “emission. Data were normalized to the baseline response of the ligand.”
as §2

The target in assay [6] is T5, PrRPR T233A (Homo sapiens, UniProt P49683, T233A).
T5 construct: Flag; expressed in transfected cells; host or cells: AD293 cells
The assay is described as follows: BRET2 Gq dissociation, T233A. The following applies: T233A (5.46), Gq-coupling, AD293 cells; mean ± S.E.M., n = 3; P <0.0001 vs WT; read-out: BRET2 pEC50 (converted). On the procedure: as §1, with “Following a 15-min equilibration period, cells were treated with 10 µL of ligand for an additional 5 min.” left out, “emission.” for “emission. Data were normalized to the baseline response of the ligand.”
as §2

In assay [7] the target is T6, PrRPR T117A (Homo sapiens, UniProt P49683, T117A).
T6 construct: expressed in transfected cells; host or cells: AD293 cells
Put plainly: BRET2 Gi dissociation, T117A. The conditions noted are these: T117A (2.61), Gi-coupling, AD293 cells; mean ± S.E.M., n = 3; P <0.0001 vs WT; read-out: BRET2 pEC50 (converted). The protocol: as §1

Assay [8] addresses T7, PrRPR W127A (Homo sapiens, UniProt P49683, W127A).
T7 construct: expressed in transfected cells; host or cells: AD293 cells
Put plainly: BRET2 Gi dissociation, W127A. The conditions noted are these: W127A (23.50), Gi-coupling, AD293 cells; mean ± S.E.M., n = 3; P <0.0001 vs WT; read-out: BRET2 pEC50 (converted). The protocol:
as §1

Assay [9] deals with T8, PrRPR E213A (Homo sapiens, UniProt P49683, E213A).
T8 construct: expressed in transfected cells; host or cells: AD293 cells
Put plainly: BRET2 Gq dissociation, E213A. The following applies: E213A (45.52), Gq-coupling, AD293 cells; mean ± S.E.M., n = 3; P <0.0001 vs WT; read-out: BRET2 pEC50 (converted). On the procedure:
as §1, with “Following a 15-min equilibration period, cells were treated with 10 µL of ligand for an additional 5 min.” left out, “emission.” for “emission. Data were normalized to the baseline response of the ligand.”
as §2

The structures appear in SMILES notation. Peptide text beside a SMILES is read from it.

T1 sequence (P49683 whole entry N298A): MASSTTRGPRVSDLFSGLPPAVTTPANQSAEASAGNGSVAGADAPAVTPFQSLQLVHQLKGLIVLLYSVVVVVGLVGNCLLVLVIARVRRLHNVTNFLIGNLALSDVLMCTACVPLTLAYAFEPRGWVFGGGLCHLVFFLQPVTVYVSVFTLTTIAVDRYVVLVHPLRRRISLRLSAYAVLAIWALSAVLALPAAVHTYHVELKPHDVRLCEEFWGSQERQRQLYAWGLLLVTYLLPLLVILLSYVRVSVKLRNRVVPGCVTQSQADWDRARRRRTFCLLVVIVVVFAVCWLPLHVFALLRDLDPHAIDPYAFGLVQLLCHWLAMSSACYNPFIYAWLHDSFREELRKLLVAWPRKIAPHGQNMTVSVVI
T2 sequence (P49683 whole entry P142A): as the sequence (P49683 whole entry N298A) above, with P142A, A298N counted along it
T7 sequence (P49683 whole entry W127A): as the sequence (P49683 whole entry N298A) above, with W127A, A298N counted along it
T3 sequence (P49683 whole entry L294A): as the sequence (P49683 whole entry N298A) above, with L294A, A298N counted along it
T4 sequence (P49683 whole entry Y225A): as the sequence (P49683 whole entry N298A) above, with Y225A, A298N counted along it
T8 sequence (P49683 whole entry E213A): as the sequence (P49683 whole entry N298A) above, with E213A, A298N counted along it
T6 sequence (P49683 whole entry T117A): as the sequence (P49683 whole entry N298A) above, with T117A, A298N counted along it
T5 sequence (P49683 whole entry T233A): as the sequence (P49683 whole entry N298A) above, with T233A, A298N counted along it

Turning to `CC[C@H](C)[C@H](NC(=O)CNC(=O)[C@H](CCCNC(=N)N)NC(=O)[C@H](CO)NC(=O)[C@H](C)NC(=O)[C@H](Cc1ccc(O)cc1)NC(=O)[C@H](Cc1c[nH]c2ccccc12)NC(=O)[C@H](C)NC(=O)[C@@H]1CCCN1C(=O)[C@H](CC(N)=O)NC(=O)[C@@H](NC(=O)[C@H](CC(=O)O)NC(=O)[C@@H]1CCCN1C(=O)[C@@H](N)[C@@H](C)O)[C@@H](C)CC)C(=O)N[C@@H](CCCNC(=N)N)C(=O)N1CCC[C@H]1C(=O)N[C@H](C(=O)NCC(=O)N[C@@H](CCCNC(=N)N)C(=O)N[C@@H](Cc1ccccc1)C(N)=O)C(C)C` [PrRP20] (H-TPDINPAWYASRGIRPVGRF-NH2), the EC50 was 6.31 nM in assay [1]; 6.46 nM in [2]; 5.62 nM in assay [3]; 2.95 nM in assay [4]; 178 nM in assay [5]; 5.75 nM in [6]. Also, the EC50 in assay [7] was 3470 nM; in assay [8], 490 nM; in assay [9] it was 282 nM.

For the origin of these results see publication PMC11369081, “Molecular mechanism of prolactin-releasing peptide recognition and signaling via its G protein-coupled receptor” (Cell Discovery, 2024).
